The text below walks through data of US20220162182A1, “KINASE INHIBITOR COMPOUNDS AND COMPOSITIONS AND METHODS OF USE” (ICAHN SCHOOL OF MEDICINE AT MOUNT SINAI, priority 2018, published 2022).

“And” between values parts separate entries of the source, which are not always exact repeats. Identical values can stand only once.

In one assay the target is T1, DYRK1A (Homo sapiens, UniProt Q13627).
T1 construct: purchased DiscoverX
Kind of assay: KINOMEscan DYRK1A binding assay (DiscoverX), Kd determination. To be noted: eleven serial three fold dilutions, highest concentration 60 μM, several values in a cell = repeat determinations. How it is done: Compounds were tested for DYRK1A binding activity at DiscoverX. DiscoverX uses proprietary KINOMEscan® Assay (Fabian et al., “A Small Molecule-kinase Interaction Map for Clinical Kinase Inhibitors,” Nat. Biotechnol. 23(3):329-336 (2005), which is hereby incorporated by reference in its entirety). Compounds were screened for DYRK1A activity at a single concentration of 3 μM in duplicates. Similarly, the dissociation constant Kd of the hit compounds from the initial screening was determined at DiscoverX using their proprietary KINOMEscan® Assay. Kd values are determined using eleven serial three fold dilutions with the highest concentration of 60 μM.

For a further assay, the target named is T2, DYRK1/DYRK1A (Homo sapiens, UniProt Q13627).
T2 construct: purchased Reaction Biology Corp
Kind of assay: DYRK1/DYRK1A IC50 assay (Reaction Biology Corp.). Type of assay: biochemical. The conditions noted are these: DYRK1/DYRK1A assay from Reaction Biology Corp.

`N#Cc1cccc(CNc2cncc(-c3ccc4[nH]c(=O)[nH]c4c3)c2)c1` [Compound 30f, 3-(((5-(2-Oxo-2,3-dihydro-1H-benzo[d]imidazol-5-yl)pyridin-3-yl)amino)methyl)benzonitrile]: on DYRK1A, the affinity, expressed as Kd, was 5.8 nM.

`N#Cc1ccc(CNc2cncc(-c3ccc4[nH]c(=O)[nH]c4c3)c2)cc1` [Compound 30g, 4-(((5-(2-Oxo-2,3-dihydro-1H-benzo[d]imidazol-5-yl)pyridin-3-yl)amino)methyl)benzonitrile]: on DYRK1A, the affinity, expressed as Kd, was 31 nM.

`O=c1[nH]c2ccc(-c3cncc(NCc4ccc(-c5ccccc5)cc4)c3)cc2[nH]1` [Compound 30h, 5-(5-(([1,1′-Biphenyl]-4-ylmethyl)amino)pyridin-3-yl)-1H-benzo[d]imidazol-2(3H)-one] yielded a Kd on DYRK1A of 1200 nM.

With `CC(Nc1cncc(-c2ccc3[nH]c(=O)[nH]c3c2)c1)c1ccccc1` (stereo not drawn) [Compound 30j, 5-(5-((1-Phenylethyl)amino)pyridin-3-yl)-1H-benzo[d]imidazol-2(3H)-one], the Kd at DYRK1A is 0.71 nM and 1.1 nM.

For the molecule `O=c1[nH]c2ccc(-c3cncc(NCCc4ccccc4)c3)cc2[nH]1` [Compound 30k, 5-(5-(Phenethylamino)pyridin-3-yl)-1H-benzo[d]imidazol-2(3H)-one], the Kd at DYRK1A came to 4.3 nM.

Molecule `CC(Nc1cncc(-c2ccc3[nH]c(=O)n(C)c3c2)c1)c1ccccc1` (stereo not drawn) [Compound 30n, 1-Methyl-6-(5-((1-phenylethyl)amino)pyridin-3-yl)-1H-benzo[d]imidazol-2(3H)-one] registered a Kd on DYRK1A of 0.81 nM.

On DYRK1A, `O=c1[nH]c2ccc(-c3cncc(NCCCc4ccccc4)c3)cc2[nH]1` [Compound 30p, 5-(5-((3-Phenylpropyl)amino)pyridin-3-yl)-1H-benzo[d]imidazol-2(3H)-one] returned a Kd of 15 nM. Moreover, the midpoint of inhibition at DYRK1/DYRK1A, the IC50, lay at 1.83 nM.

`Cn1c(=O)[nH]c2ccc(-c3cncc(NCc4ccccc4F)c3)cc21` [Compound 30q, 6-(5-((2-Fluorobenzyl)amino)pyridin-3-yl)-1-methyl-1H-benzo[d]imidazol-2(3H)-one]: the affinity on DYRK1A, expressed as Kd, was 0.86 nM. In addition, it took 0.3 nM to reach half-maximal inhibition on DYRK1/DYRK1A (IC50).

`Cn1c(=O)[nH]c2ccc(-c3cncc(NCc4ccccc4Cl)c3)cc21` [Compound 30r, 6-(5-((2-Chlorobenzyl)amino)pyridin-3-yl)-1-methyl-1H-benzo[d]imidazol-2(3H)-one]: the Kd at DYRK1A turned out to be 1.3 nM. This molecule yielded an IC50 at DYRK1/DYRK1A of 0.1 nM.

With `O=c1[nH]c2ccc(-c3cncc(NCc4ccccn4)c3)cc2[nH]1` [Compound 31a, 5-(5-((Pyridin-2-ylmethyl)amino)pyridin-3-yl)-1H-benzo[d]imidazol-2(3H)-one], the Kd on DYRK1A amounted to 1.2 nM.

`O=c1[nH]c2ccc(-c3cncc(NCc4cccnc4)c3)cc2[nH]1` [Compound 31b, 5-(5-((Pyridin-3-ylmethyl)amino)pyridin-3-yl)-1H-benzo[d]imidazol-2(3H)-one] returned a dissociation constant Kd at DYRK1A of 2.1 nM.

With `O=c1[nH]c2ccc(-c3cncc(NCc4ccncc4)c3)cc2[nH]1` [Compound 31c, 5-(5-((Pyridin-4-ylmethyl)amino)pyridin-3-yl)-1H-benzo[d]imidazol-2(3H)-one], on DYRK1A, the Kd amounted to 3.9 nM.

Take `O=c1[nH]c2ccc(-c3cncc(NCc4cccc5ccccc45)c3)cc2[nH]1` [Compound 31d, 5-(5-((Naphthalen-1-ylmethyl)amino)pyridin-3-yl)-1H-benzo[d]imidazol-2(3H)-one]: on DYRK1A, the affinity, expressed as Kd, was 28 nM. Against the preceding molecule, the Kd is about 7.2-fold higher.

On DYRK1A, `O=c1[nH]c2ccc(-c3cncc(NCc4ccc5ccccc5c4)c3)cc2[nH]1` [Compound 31e, 5-(5-((Naphthalen-2-ylmethyl)amino)pyridin-3-yl)-1H-benzo[d]imidazol-2(3H)-one] yielded a Kd of 100 nM. This Kd is about 3.6-fold higher than that of the molecule before.

Consider `NC(=O)c1cccc(CNc2cncc(-c3ccc4[nH]c(=O)[nH]c4c3)c2)c1` [Compound 33a, 3-(((5-(2-Oxo-2,3-dihydro-1H-benzo[d]imidazol-5-yl)pyridin-3-yl)amino)methyl)benzamide], for which, on DYRK1A, the Kd is 9.9 nM. This Kd is about 10-fold lower than that of the molecule before.

For the molecule `NC(=O)c1ccc(CNc2cncc(-c3ccc4[nH]c(=O)[nH]c4c3)c2)cc1` [Compound 33b, 4-(((5-(2-Oxo-2,3-dihydro-1H-benzo[d]imidazol-5-yl)pyridin-3-yl)amino)methyl)benzamide], the Kd at DYRK1A is 14 nM.

At DYRK1A, `N[C@H](Cc1ccccc1)c1cncc(-c2ccc3[nH]c(=O)[nH]c3c2)c1` [Compound 65a, (R)-5-(5-(1-Amino-2-phenylethyl)pyridin-3-yl)-1H-benzo[d]imidazol-2(3H)-one] came in with a Kd of 3.2 nM. Also, it took 3.98 nM to reach half-maximal inhibition on DYRK1/DYRK1A (IC50).

With `N[C@@H](Cc1ccccc1)c1cncc(-c2ccc3[nH]c(=O)[nH]c3c2)c1` [Compound 65b, (S)-5-(5-(1-Amino-2-phenylethyl)pyridin-3-yl)-1H-benzo[d]imidazol-2(3H)-one], on DYRK1A, the Kd turned out to be 15 nM. The molecule further came in with an IC50 against DYRK1/DYRK1A of 23.2 nM.

Molecule `C[C@@H](Nc1cncc(-c2ccc3[nH]c(=O)[nH]c3c2)c1)c1ccccc1` [Compound 68a, (R)-5-(5-((1-Phenylethyl)amino)pyridin-3-yl)-1H-benzo[d]imidazol-2(3H)-one] yielded a Kd on DYRK1A of 0.59 nM. The molecule further displayed a half-maximal inhibitory concentration (IC50) against DYRK1/DYRK1A of 0.21 nM.

The molecule `C[C@H](Nc1cncc(-c2ccc3[nH]c(=O)[nH]c3c2)c1)c1ccccc1` [Compound 68b, (S)-5-(5-((1-Phenylethyl)amino)pyridin-3-yl)-1H-benzo[d]imidazol-2(3H)-one] returned a Kd on DYRK1A of 7.5 nM. At DYRK1/DYRK1A, this molecule registered an IC50 of 2.18 nM.

By Kd is commonly meant the equilibrium constant for the complex coming apart. A low value points to a tighter complex. For orientation: IC50 means the midpoint of a concentration-inhibition curve. Low readings indicate greater potency in that assay, high ones weaker potency in that assay.
